Values of other authors in US20220339088A1, “METHOD FOR DYEING KERATIN MATERIAL, COMPRISING THE USE OF AN ORGANIC C1-C6 ALKOXY SILANE AND AN ACIDIFIER” (Henkel AG & Co. KGaA, priority 2019, published 2022).

Conditions: 25° C.

| solubility in water (in words) | SMILES | solubility in water |
| --- | --- | --- |
|  | O=S(=O)([O-])c1ccc(N=Nc2c(O)ccc3ccccc23)cc1.[Na+] [Acid Orange 7, sodium salt of 4-[(2-hydroxy-1-naphthyl)azo]benzene sulphonate] | more than 7 g/L |
|  | Nc1cc(S(=O)(=O)[O-])cc2cc(S(=O)(=O)[O-])c(N=Nc3ccccc3)c(O)c12.[Na+].[Na+] [Acid Red 33, diantrium salt of 5-amino-4-hydroxy-3-(phenylazo)-naphthalene-2,7-disulphonate] | 2500 µg/mL |
|  | O=C([O-])c1c(Cl)c(Cl)c(Cl)c(Cl)c1-c1c2c(Br)cc(=O)c(Br)c-2oc2c(Br)c(O)cc(Br)c12.O=C([O-])c1c(Cl)c(Cl)c(Cl)c(Cl)c1-c1c2c(Br)cc(=O)c(Br)c-2oc2c(Br)c(O)cc(Br)c12.[Na+].[Na+] [Acid Red 92, disodium salt of 3,4,5,6-tetrachloro-2-(1,4,5,8-tetrabromo-6-hydroxy-3-oxoxanthen-9-yl)benzoic acid] | greater than 10 g/L |
| highly soluble | O=C([O-])C1=NN(c2ccc(S(=O)(=O)[O-])cc2)C(=O)C1N=Nc1ccc(S(=O)(=O)[O-])cc1.[Na+].[Na+].[Na+] (stereo not shown) [Acid Yellow 23, trisodium salt of 4,5-dihydro-5-oxo-1-(4-sulfophenyl)-4-((4-sulfophenyl)azo)-1H-pyrazole-3-carboxylic acid] |  |
